From paper PMC9995496, “A screen for MeCP2-TBL1 interaction inhibitors using a luminescence-based assay” (Scientific Reports, 2023) come the findings set out here.

This assay concerns the target T1, MeCP2-TBL1 interaction (MeCP2-SmBiT / TBL1-LgBiT) (Mus musculus, UniProt Q9QXE7).
T1 construct: expressed in transfected cells; crude lysate used as a cell-free assay
T1 sequence (Q9QXE7 166-527): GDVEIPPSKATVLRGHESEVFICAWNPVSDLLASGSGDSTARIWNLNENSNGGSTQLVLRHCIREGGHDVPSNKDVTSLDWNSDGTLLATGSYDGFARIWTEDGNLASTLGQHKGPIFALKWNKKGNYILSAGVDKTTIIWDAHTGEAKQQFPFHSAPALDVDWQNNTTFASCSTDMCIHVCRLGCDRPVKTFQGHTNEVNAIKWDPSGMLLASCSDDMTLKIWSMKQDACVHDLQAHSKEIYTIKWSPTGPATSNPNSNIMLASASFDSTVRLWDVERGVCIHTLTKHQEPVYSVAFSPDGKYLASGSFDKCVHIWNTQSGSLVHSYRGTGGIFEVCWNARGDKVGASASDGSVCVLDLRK
Description: MeCP2-TBL1 NanoLuc luciferase complementation assay (cell-free, extracts of transfected HEK293 cells). The assay is classed as binding, human. An excerpt:
To facilitate the discovery of inhibitors of the interaction between MeCP2 and TBL1/TBLR1, we set out to devise a simple and scalable biochemical assay for measuring the interaction between these two proteins. We initially explored the possibility of screening compound libraries using a previously established fluorescence polarization assay that depends on purified recombinant TBL1/TBLR1[26]. […] The resulting luminescence signal depends on the affinity between the two interacting proteins of interest (Fig. 1A). This method was originally developed to allow for the interrogation of protein–protein interactions in vivo. However, in order to facilitate large scale screening of chemical libraries, we adapted the assay for use as a cell-free system.
We fused the large N-terminal fragment of NanoLuc (LgBiT) to the C-terminus of the WD repeat domains of both TBL1 and TBLR1, and the small C-terminal fragment of NanoLuc (SmBiT) to the C-terminus of the C-terminal half of MeCP2 (Fig. 1B and C). This region of MeCP2 contains the NID (NCoR interaction domain)—the motif in MeCP2 that binds to TBL1/TBLR1.
The AgeI-NotI restriction fragment (encoding EGFP) was then replaced with a codon optimized SmBiT sequence to yield the MeCP2-SmBiT expression plasmid. The TBL1-LgBiT expression vector was derived from a TBL1-mCherry plasmid[25] by replacing the AgeI-NotI restriction fragment (encoding mCherry) with a codon optimized LgBiT sequence. SmBiT-PRKACA and LgBiT-PRKAR2A plasmids are commercially available (Promega, N203 and N204).
Cells were harvested after 24 h and cell pellets were stored at − 80 °C.
In the screens described here, the lysate obtained from a single 15 cm plate was used for 2.5 384-well assay plates. NanoLuc substrate (furimazine) (Promega, N1110) was diluted 1000-fold in passive lysis buffer (Promega, E1941) and added 1:1 to the lysate. Screening libraries were purchased from Asinex[40] and ApexBio (FDA-approved Drug Library, L1021). Compounds were dispensed using an Echo acoustic dispenser and tested at a final concentration of 20 µM in a total assay volume of 20 μl in 384-well plate format. DMSO was added to each well at a final concentration of 0.2% (v/v) and wells containing only DMSO were used as negative control. After 30 min incubation at room temperature, luminescence was measured on a Tecan M1000 multi-mode plate reader. Raw luminescence reads from each well on each plate were normalized to the median luminescence signal for that plate. In the ApexBio screen, the scaled and normalized PKA signal for each compound was subtracted from the MeCP2-TBL1 signal for the same compound. After plate normalization the robust SSMD (SSMD*) was calculated as described elsewhere. A threshold of SSMD* ≥ 3 was applied for discerning primary hits.
Assays were performed as described above except instead of a single concentration, a threefold serial dilution ranging from 60 to 0.03 μM was tested in triplicate for each of the compounds. Half-maximal inhibitory concentrations were calculated using global nonlinear regression by fitting the response data sets of all compounds simultaneously with a four-parameter logistic curve of log inhibitor concentration versus normalized luminescence using GraphPad Prism. During fitting, the maximum and minimum curve values were shared between the data sets.

Setting [1] is: primary screen of the Asinex library, sheet "Sargen output Asinex library", one well per compound.
Setting [2] is: primary screen of Asinex library, single well per compound.
[3] abbreviates: primary screen of the Asinex library, sheet "Sargen output Asinex library", one well per compound, Batch Ref. 1.

On to `Cn1ccc(C(=O)Nc2ccccc2C(=O)N2CCC3(CN(Cc4ccccc4)C(=O)O3)C2)n1` (stereo not drawn) [BDH_32374198], for which the Inhibition percent under setting [1] is on record as -4.02%.

As to `CC(=O)c1ccc(NC(=O)CN2CCC[C@@H]3O[C@@H]4c5cc(Cl)ccc5OC(C)(C)[C@H]4C[C@@H]32)cc1` [BDG_51129056], the Inhibition percent under setting [2] is -1.84.

For `Cn1c(CNC(=O)CN2[C@H](Cc3ccccc3)C[C@]3(C)NC(=O)CCC[C@H]23)nc2ccccc21` [BDH_33623014], the Inhibition percent under setting [1] is reported as -0.21%.

Consider `CC(C)(NC(=O)CCc1ccccc1)C(=O)N1CCC(Cc2ccc3ncccc3c2)CC1` [BDH_32328019], for which, under setting [2], the Inhibition percent was -2.64.

Regarding `C[C@]12C[C@@H]3N[C@H]1CCCC[C@H]2N(C(=O)COc1ccc(F)cc1F)[C@H]3Cc1ccccc1` [BDG_33505865], the Inhibition percent under setting [2] is on record as 1.00.

As for `CN1CCC(Cc2ccc(F)cc2)(C(=O)N2CCC(Cc3cccc4cccnc34)CC2)CC1` [BDH_32354505], the Inhibition percent under setting [1] is -1.95%.

Turning to `COc1ccccc1-c1ccc(CN2[C@@H](c3ccccc3)C[C@@H]3NC(=O)CCC[C@H]32)cc1` [BDG_23930473], the Inhibition percent under setting [3] was determined as 6.28%.

As for `CC1(C)Oc2ccccc2[C@H]2OCC3(CCN(C(=O)c4[nH]nc5c4CCCCC5)CC3)C[C@@H]21` [BDG_33694755], the Inhibition percent under setting [3] came to 2.01%.

`CC1(C)Oc2ccc(Cl)cc2[C@H]2OCC3(CCN(C(=O)CNC(=O)c4ccccc4)CC3)C[C@@H]21` [BDG_33694526]: the Inhibition percent under setting [2] was -2.33.

Turning to `NC(=O)C1(Cc2cc(C3CCCCC3)no2)CCN(C(=O)CN2CCCCCC2=O)C1` (stereo not drawn) [BDF_24693170], the Inhibition percent under setting [3] is listed as -2.18%.

`CN(Cc1ccccc1)[C@@H]1[C@@H](O)[C@H](Oc2cccc(C(F)(F)F)c2)C[C@H]1NC(=O)CCN` [BDG_34056156]: the Inhibition percent under setting [2] is recorded as -1.01.

On to `Cc1nccn1Cc1ccccc1C(=O)N1CCCC(Cc2cccc3cccnc23)CC1` (stereo not drawn) [BDH_32339298], for which the Inhibition percent under setting [1] stood at 3.41%.

As to `C[C@]12C[C@@H](Cc3ccccc3)N(C(=O)c3ccc(NCc4cccnc4)cc3)[C@H]1CCCC(=O)N2` [BDH_33630910], the Inhibition percent under setting [3] worked out at 7.42%.

With `CC1(C)Oc2ccc(O)cc2[C@H]2O[C@H]3CCN(C(=O)c4cccc(OCC(=O)O)c4)[C@@H]3C[C@@H]21` [BDG_34133313], under setting [3], the Inhibition percent is reported as -2.82%.

In the case of `CC1(C)Oc2ccccc2[C@@H]2O[C@@H]3CCN(C(=O)c4cccc(Cn5ccnc5)c4)C[C@]3(CO)C[C@H]21` [BDH_34133896], the Inhibition percent under setting [3] stood at 6.91%.

Turning to `Cn1cc(C(=O)Nc2cccc(C(=O)N3CCCC(Cc4cnc5ccccc5c4)CC3)c2)cn1` (stereo not drawn) [BDH_32361063], the Inhibition percent under setting [2] is on record as -0.14.

In the case of `Cc1cc(-c2ccc(N)nc2)cc(C2CN(C(=O)CCc3cccc(Cl)c3)CCO2)n1` (stereo not drawn) [BDF_26216758], the Inhibition percent under setting [3] was determined as 8.38%.

Regarding `CCOc1cccc2c1OC(C)(C)[C@@H]1C[C@@H]3[C@@H](CCCN3C(=O)c3cccc(F)c3C(=O)O)O[C@@H]21` [BDG_34132357], the Inhibition percent under setting [2] was -0.29.

On to `CC1(C)Oc2ccc(Cl)cc2[C@H]2O[C@H]3CCN(CC(=O)N4CC(=O)Nc5ccccc54)C[C@@H]3C[C@@H]21` [BDG_34134010], for which the Inhibition percent under setting [3] is recorded as 2.78%.

With `Cc1cc(NC(=O)CN2[C@H]3CCCCCN[C@@]3(C)C[C@H]2c2ccccc2)nn1C` [BDH_33624483], the Inhibition percent under setting [2] was -0.55.

Turning to `FC(F)(F)c1ccccc1Cc1cccc(C2CN(Cc3cccnc3)CCO2)n1` (stereo not drawn) [BDF_27574784], the Inhibition percent under setting [3] is given as 32.27%.

As to `O=C(NCCc1ccccc1)[C@@H]1[C@H](O)[C@@H](c2ccc(F)cc2)CN1C(=O)Cc1c[nH]c2ccccc12` [BDH_34023215], the Inhibition percent under setting [2] came to 2.61.

As to `COc1cccc(-c2cc(C(=O)N3CCCCC3c3ncc(Cc4ccccc4OC)o3)[nH]n2)c1` (stereo not drawn) [BDE_33513613], the Inhibition percent under setting [3] is recorded as 18.16%.

For `O=C1CCCC[C@]2(CN(Cc3ccnc(N4CCCCC4)n3)C[C@H]2c2ccccc2)N1` [BDH_32353018], under setting [2], the Inhibition percent is given as -0.90.

Turning to `C[C@]12C[C@@H](c3cccc(C(F)(F)F)c3)N(C(=O)CCc3nc4ccccc4[nH]3)[C@H]1CCCCC(=O)N2` [BDH_33631539], under setting [2], the Inhibition percent is reported as -2.28.

As for `CC1(C)Oc2ccccc2[C@H]2OCC3(CCN(C(=O)c4ccnc(N5CCCC5)c4)CC3)C[C@@H]21` [BDG_33695760], the Inhibition percent under setting [2] stood at 0.33.

`Cc1cc(CCCC(=O)N2CCCC2c2cccc(Nc3nncs3)n2)ccc1F` (stereo not drawn) [BDE_26594959]: the Inhibition percent under setting [3] is on record as 1.13%.

`COc1ccc(C2(C(=O)N3CCC4(CC3)CC(Oc3ccccc3F)CO4)CCOCC2)cc1` (stereo not drawn) [BDH_32372513]: the Inhibition percent under setting [1] is on record as -1.24%.

`Cc1nc(C(=O)N2CCCC3(C/C=C/COc4ccccc4C(=O)NCCNC3=O)C2)co1` (stereo not drawn) [BDH_33731677]: the Inhibition percent under setting [3] is listed as -0.08%.

As to `COc1ccc(CN(C)[C@@H]2[C@@H](O)[C@H](Oc3cccc(F)c3)C[C@H]2NC(=O)CCC(N)=O)cc1` [BDI_34058033], the Inhibition percent under setting [3] is listed as -0.09%.

On to `COc1cccc([C@@H]2C[C@]3(C)NC(=O)CCCC[C@@H]3N2CC(=O)Nc2cc(C)n(C)n2)c1` [BDH_33624491], for which the Inhibition percent under setting [3] is -2.56%.

Turning to `Cn1nccc1CN[C@@H]1C[C@@H](Oc2ccccc2)[C@H](O)[C@H]1N1CCN(c2ccccc2)CC1` [BDH_33787192], under setting [2], the Inhibition percent is -0.36.

With `Cc1nc2ccc(NC(=O)CN3CC[C@@]4(C)[C@@H]3CCCCC(=O)N4Cc3ccc(F)cc3)cc2[nH]1` [BDH_33616216], the Inhibition percent under setting [3] is given as 6.38%.

Consider `COc1ccc(Cc2ccc(C3CCCN3C(=O)CCn3ncc4ccccc43)nc2)cc1` (stereo not drawn) [BDE_25650039], for which the Inhibition percent under setting [3] is 3.10%.

As to `O=C1CCCN1CCOc1cccc(C(=O)N2CCCC(Cc3cnc4ccccc4c3)CC2)c1` (stereo not drawn) [BDH_32358596], under setting [1], the Inhibition percent is -12.20%.

For `CC1(C)Oc2ccccc2[C@H]2OCC3(CCN(C(=O)CCc4cccnc4)CC3)C[C@@H]21` [BDG_33692190], the Inhibition percent under setting [3] is given as -1.50%.

Consider `COc1cc2c(cc1[C@H]1C[C@@H](NC(C)=O)CC3(CCCCC3)O1)OCCCO2` [BDH_33665894], for which the Inhibition percent under setting [3] turned out to be 2.60%.

`COc1cccc(C2CN(Cc3ccccc3)C(=O)C23CCN(Cc2ccc(C(=O)O)cc2)CC3)c1` (stereo not drawn) [BDH_34130105]: the Inhibition percent under setting [2] is 0.45.

Regarding `Cc1cccc(CN(CCc2c[nH]c3ccccc23)[C@@H]2CC[C@@H](NCc3ccccc3)[C@H]2O)c1` [BDF_33953574], under setting [1], the Inhibition percent is on record as 3.88%.

Turning to `CN(Cc1ccccc1)[C@@H]1[C@@H](O)[C@H](Oc2ccc(F)c(F)c2)C[C@H]1NC(=O)CC(C)(C)CC(=O)O` [BDG_34135525], the Inhibition percent under setting [1] is given as 1.42%.

`O=C(O)COc1cccc(C(=O)N2C[C@@H](c3ccccc3F)[C@@]3(CCCCC(=O)N3)C2)c1` [BDG_34133280]: the Inhibition percent under setting [2] is on record as 2.13.

On to `CC1(C)Oc2ccc(C(=O)O)cc2[C@H]2O[C@H]3CCSC[C@H]3C[C@@H]21` [BDG_51128812], for which the Inhibition percent under setting [2] is on record as -0.06.

Consider `CC(=O)N[C@@]12CN(C)CC[C@@H]1[C@@H](c1ccccc1)N(C(=O)c1cccc(-n3nc(C)cc3C)c1)C2` [BDH_32365020], for which the Inhibition percent under setting [2] is reported as -3.43.

In the case of `CN1CCCC(CCCc2cnccn2)(C(=O)N2CCC(Cc3cccc4cccnc34)CC2)C1` (stereo not drawn) [BDH_32356918], the Inhibition percent under setting [1] is reported as -2.36%.

Consider `CN(C)c1ncc(-c2cccc(C(N)=O)c2)c(C2CCCCN2CC(=O)NCc2ccccn2)n1` (stereo not drawn) [BDE_33632669], for which, under setting [2], the Inhibition percent is recorded as -2.55.
